Measurements published in ChEMBL document CHEMBL2424637, “Nucleophilic substitution reactions of 1,4-naphthoquinone and biologic properties of novel S-, S,S-, N-, and N,S-substituted 1,4-naphthoquinone derivatives” (2013).
Converted amounts (≈) assume the structure as drawn. The source made the active and inactive calls. The calls are words filed in the database; no cut-off is given here.

What was measured:
Type in all cases: functional
[1] = tested on: Mycobacterium; experiment: Antibacterial activity against Mycobacterium luteum B-917 at 0.5% after 24 hrs by agar disk diffusion technique
[2] = tested on: Yamadazyma tenuis; experiment: Antifungal activity against Candida tenuis VKM Y-70 after 24 to 72 hrs by serial dilution technique
[3] = tested on: Mycobacterium; experiment: Antibacterial activity against Mycobacterium luteum B-917 at 0.1% after 24 hrs by agar disk diffusion technique
[4] = tested on: Staphylococcus aureus; experiment: Antibacterial activity against Staphylococcus aureus 209-P after 24 to 72 hrs by serial dilution technique
[5] = tested on: Escherichia coli; experiment: Antibacterial activity against Escherichia coli B-906 at 0.1% after 24 hrs by agar disk diffusion technique
[6] = tested on: Staphylococcus aureus; experiment: Antibacterial activity against Staphylococcus aureus 209-P at 0.5% after 24 hrs by agar disk diffusion technique
[7] = tested on: Yamadazyma tenuis; experiment: Antifungal activity against Candida tenuis VKM Y-70 at 0.1% after 48 to 72 hrs by agar disk diffusion technique
[8] = tested on: Escherichia coli; experiment: Antibacterial activity against Escherichia coli B-906 at 0.5% after 24 hrs by agar disk diffusion technique
[9] = tested on: Yamadazyma tenuis; experiment: Antifungal activity against Candida tenuis VKM Y-70 at 0.5% after 48 to 72 hrs by agar disk diffusion technique
[10] = tested on: Mycobacterium; experiment: Antibacterial activity against Mycobacterium luteum B-917 after 24 to 72 hrs by serial dilution technique
[11] = tested on: Escherichia coli; experiment: Antibacterial activity against Escherichia coli B-906 after 24 to 72 hrs by serial dilution technique
[12] = tested on: Aspergillus niger; experiment: Antifungal activity against Aspergillus niger F-1119 at 0.1% after 48 to 72 hrs by agar disk diffusion technique
[13] = tested on: Staphylococcus aureus; experiment: Antibacterial activity against Staphylococcus aureus 209-P at 0.1% after 24 hrs by agar disk diffusion technique
[14] = tested on: Aspergillus niger; experiment: Antifungal activity against Aspergillus niger F-1119 after 24 to 72 hrs by serial dilution technique
[15] = tested on: Aspergillus niger; experiment: Antifungal activity against Aspergillus niger F-1119 at 0.5% after 48 to 72 hrs by agar disk diffusion technique

Row | Molecule | diameter of the inhibition zone (DIZ) [1] [mm] | MIC [2] | diameter of the inhibition zone (DIZ) [3] [mm] | MIC [4] | diameter of the inhibition zone (DIZ) [5] [mm] | diameter of the inhibition zone (DIZ) [6] [mm] | diameter of the inhibition zone (DIZ) [7] [mm] | diameter of the inhibition zone (DIZ) [8] [mm] | diameter of the inhibition zone (DIZ) [9] [mm] | MIC [10] | MIC [11] | diameter of the inhibition zone (DIZ) [12] [mm] | diameter of the inhibition zone (DIZ) [13] [mm] | MIC [14] | diameter of the inhibition zone (DIZ) [15] [mm] | inhibition zone (IZ) [7] [mm]
1 | O=C1C(Sc2c(Cl)c(Cl)c(Cl)c(Cl)c2Cl)=C(N2CCCCC2)C(=O)c2ccccc21 | 0 | inactive | 0 | inactive | 0 | 0 | 0 | 0 | 0 | inactive | inactive | 0 | 0 | inactive | 0 | 
2 | NYSTATIN |  |  |  |  |  |  |  |  |  |  |  |  |  |  |  | 19
3 | CSc1ccc(SC2=C(Sc3ccc(SC)cc3)C(=O)c3ccccc3C2=O)cc1 | 11 | inactive | 8.7 | 250 µg/mL (≈ 536 µM) | 0 | 8.7 | 0 | 0 | 0 | 125 µg/mL (≈ 268 µM) | inactive | 0 | 0 | 500 µg/mL (≈ 1070 µM) | 6 | 
4 | COC(=O)CCSC1=C(N2CCC3(CC2)OCCO3)C(=O)c2ccccc2C1=O | 12.6 | inactive | 0 | inactive | 0 | 0 | 0 | 0 | 0 | 250 µg/mL (≈ 599 µM) | inactive | 0 | 0 | 500 µg/mL (≈ 1200 µM) | 8.4 | 
5 | COC(=O)CCSC1=C(Sc2c(Cl)c(Cl)c(Cl)c(Cl)c2Cl)C(=O)c2ccccc2C1=O | 10.7 | 62.5 µg/mL (≈ 112 µM) | 6 | 250 µg/mL (≈ 449 µM) | 0 | 0 | 0 | 0 | 0 | 15.6 µg/mL (≈ 28 µM) | inactive | 0 | 0 | inactive | 0 | 
6 | CN[C@H](CC(C)C)C(=O)N[C@H]1C(=O)N[C@@H](CC(N)=O)C(=O)N[C@H]2C(=O)N[C@H]3C(=O)N[C@H](C(=O)N[C@H](C(=O)O)c4cc(O)cc(O)c4-c4cc3ccc4O)[C@H](O)c3ccc(c(Cl)c3)Oc3cc2cc(c3O[C@@H]2O[C@H](CO)[C@@H](O)[C@H](O)[C@H]2O[C@H]2C[C@](C)(N)[C@H](O)[C@H](C)O2)Oc2ccc(cc2Cl)[C@H]1O [VANCOMYCIN] |  |  | 18 |  | 14 |  |  |  |  |  |  |  | 15 |  |  | 
7 | CCOC1=C(N(CC)Cc2ccncc2)C(=O)c2ccccc2C1=O | 7.4 | 62.5 µg/mL (≈ 186 µM) | 0 | 62.5 µg/mL (≈ 186 µM) | 0 | 0 | 12.4 | 0 | 20 | 125 µg/mL (≈ 372 µM) | inactive | 8 | 0 | 31.2 µg/mL (≈ 92.7 µM) | 19 | 
